Source: the supplement of paper PMC10290057
Where a name gives a salt, the structure may show the parent alone.

Tests used:
[1] = test system: HCT116; assay: AC50 cell viability (CellTiter-Glo); higher = less potent; settings: 48 h
[2] = test system: HCT116; assay: efficacy (fitted maximal change in viability relative to DMSO control); higher = less cytotoxic (negative = loss of viability); settings: 48 h
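Wherever AC50 cell viability (CellTiter-Glo) is given: HCT116 colorectal carcinoma cells screened at five concentrations per compound, luminescent viability scaled between DMSO wells and empty wells on each plate, curves fitted per compound.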
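Wherever efficacy (fitted maximal change in viability relative to DMSO control) is given: Luminescence-based viability readout, five doses per compound, normalized against on-plate DMSO and empty-well controls, followed by dose-response curve fitting for every drug.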

SMILES: CN(C)CCOc1ccc(/C(=C(/CCCl)c2ccccc2)c2ccccc2)cc1 [Toremifene citrate]
- AC50 cell viability [1]: 20.9 µM
- efficacy [2]: -99.7%

SMILES: CCC(=O)N1CCN(CC1)C2=C(C=C(C=C2)N3C(=O)\C=C/C4=C3C5=CC(=CC=C5N=C4)C6=CN=C7C=CC=CC7=C6)C(F)(F)F [Torin-1]
- AC50 cell viability [1]: 0.0723 µM
- efficacy [2]: -60%

SMILES: NC1=NC=C(C=C1)C2=CC=C3N=CC\4=C(N(C(=O)\C=C4)C5=CC(=CC=C5)C(F)(F)F)C3=C2 [Torin-2]
- AC50 cell viability [1]: 0.166 µM
- efficacy [2]: -96.6%

SMILES: CC(C)N1N/C(=C2\C=c3cc(O)ccc3=N2)c2c(N)ncnc21 [Torkinib]
- AC50 cell viability [1]: 5.25 µM
- efficacy [2]: -125%

SMILES: CC(C)C[C@@H](C(=O)N[C@H](C(=O)OC1CCCC1)c1ccccc1)[C@H](O)C(=O)NO [Tosedostat]
- AC50 cell viability [1]: 4.17 µM
- efficacy [2]: -95.7%

SMILES: Cc1cc(Nc2cc(N3CCN(C)CC3)nc(Sc3ccc(NC(=O)C4CC4)cc3)n2)[nH]n1 [Tozasertib]
- AC50 cell viability [1]: 7.42 µM
- efficacy [2]: -95.2%

SMILES: COc1cc2c(cc1O)CCN[C@]21CS[C@@H]2c3c(OC(C)=O)c(C)c4c(c3[C@H](COC1=O)N1[C@@H]2[C@H]2c3c(cc(C)c(OC)c3O)C[C@@H]([C@@H]1O)N2C)OCO4 [Trabectedin]
- AC50 cell viability [1]: 0.0121 µM
- efficacy [2]: -69.8%

SMILES: CN1C(=O)C(=C/2N(C(=O)N(C3CC3)C(=O)C2=C1/NC4=CC=C(I)C=C4F)C5=CC=CC(=C5)NC(C)=O)\C [Trametinib]
- AC50 cell viability [1]: 0.0468 µM
- efficacy [2]: -62.3%

SMILES: CC(/C=C/C(=O)NO)=C\[C@@H](C)C(=O)c1ccc(N(C)C)cc1 [Trichostatin A]
- AC50 cell viability [1]: 0.332 µM
- efficacy [2]: -82.3%

SMILES: CN1\N=C(N)/C2=C[N]([C@@H]3O[C@H](CO[P](O)(O)=O)[C@@H](O)[C@H]3O)C4=C2C1=NC=N4 [Triciribine phosphate]
- AC50 cell viability [1]: 2.95 µM
- efficacy [2]: -90.5%

SMILES: CN1CCN(CCCN2c3ccccc3Sc3ccc(C(F)(F)F)cc32)CC1 [Trifluoperazine hydrochloride]
- AC50 cell viability [1]: 26.3 µM
- efficacy [2]: -119%

SMILES: OC[C@H]1O[C@H](C[C@@H]1O)N2/C=C(C(=O)NC2=O)/C(F)(F)F [Trifluridine]
- AC50 cell viability [1]: 2.63 µM
- efficacy [2]: -62.4%

SMILES: C[C@]12CC[C@H]3[C@@H](CC[C@@]45O[C@@H]4\C(=C(/C[C@]35C)C#N)O)[C@@H]1CC[C@@H]2O [Trilostane]
- AC50 cell viability [1]: 13.2 µM
- efficacy [2]: -31.9%

SMILES: COc1cc(NCc2ccc3nc(N)nc(N)c3c2C)cc(OC)c1OC [Trimetrexate]
- AC50 cell viability [1]: 1.05 µM
- efficacy [2]: -77.8%

SMILES: CC/1=C(\O)C(=O)\C=C2/C1=C\C=C3/[C@@]2(C)CC[C@@]4(C)[C@@H]5C[C@@](C)(CC[C@]5(C)CC[C@]34C)C(O)=O [Tripterin]
- AC50 cell viability [1]: 3.32 µM
- efficacy [2]: -98.9%

SMILES: CC(C)[C@]12O[C@H]1[C@@H]3O[C@@]34[C@@]5(C)CC\C6=C(COC6=O)/[C@@H]5C[C@@H]7O[C@]47[C@@H]2O [Triptolide]
- AC50 cell viability [1]: 0.0235 µM
- efficacy [2]: -52.7%

SMILES: CC(C)[C@]12O[C@H]1[C@@H]3O[C@@]34[C@@]5(C)CC\C6=C(COC6=O)/[C@@H]5C[C@@H]7O[C@]47C2=O [Triptonide]
- AC50 cell viability [1]: 0.0295 µM
- efficacy [2]: -59.2%

SMILES: Cc1c(C)c2c(c(C)c1O)CCC(C)(COc1ccc(CC3SC(=O)NC3=O)cc1)O2 (stereo unspecified) [Troglitazone]
- AC50 cell viability [1]: 18.6 µM
- efficacy [2]: -55.1%

SMILES: CN1CCc2c(c3ccccc3n2Cc2ccc(C(=O)NO)cc2)C1 [Tubastatin A]
- AC50 cell viability [1]: 10.5 µM
- efficacy [2]: -93.8%

SMILES: CC1=C(OC2=CC3=NC=N[N]3C=C2)C=CC(=C1)NC4=NC=NC5=C4C=C(N\C6=N\C(C)(C)CO6)C=C5 [Tucatinib]
- AC50 cell viability [1]: 20.9 µM
- efficacy [2]: -71.1%

SMILES: C=C1[C@H](OC(=O)/C=C(\C)CC)C[C@@H](C(C)C)[C@@H]2[C@H]([C@@H](C)OC(C)=O)C(=O)C[C@@H]12 [Tussilagone]
- AC50 cell viability [1]: 20.9 µM
- efficacy [2]: -67.9%

SMILES: CN(C)CCN1C(=O)c2cccc3cc(NC(N)=O)cc(c23)C1=O [UNBS-5162]
- AC50 cell viability [1]: 4.68 µM
- efficacy [2]: -75%

SMILES: CCCCNc1ncc2c(-c3ccc(CN4CCN(C)CC4)cc3)cn([C@H]3CC[C@H](O)CC3)c2n1 [UNC2025 (hydrochloride)]
- AC50 cell viability [1]: 1.66 µM
- efficacy [2]: -93.7%

SMILES: CCCCNc1ncc(-c2ccc(CN3CCOCC3)cn2)c(N[C@H]2CC[C@H](O)CC2)n1 [UNC2250]
- AC50 cell viability [1]: 3.62 µM
- efficacy [2]: -51.5%

SMILES: CCCCNc1ncc2c(-c3ccc(F)cc3)nn(C[C@H]3CC[C@H](N)CC3)c2n1 [UNC-569]
- AC50 cell viability [1]: 7.23 µM
- efficacy [2]: -83.5%

SMILES: COc1cc2c(NC3CCN(CC4CCCCC4)CC3)nc(N3CCCN(C(C)C)CC3)nc2cc1OCCCN1CCCCC1 [UNC-0631]
- AC50 cell viability [1]: 7.42 µM
- efficacy [2]: -106%

SMILES: COc1cc2c(NC3CCN(C(C)C)CC3)nc(C3CCCCC3)nc2cc1OCCCN1CCCC1 [UNC-0638]
- AC50 cell viability [1]: 8.33 µM
- efficacy [2]: -94.9%

SMILES: COc1cc2c(NC3CCN(C4CCCCC4)CC3)nc(N3CCCN(C(C)C)CC3)nc2cc1OCCCN1CCCCC1 [UNC-0646]
- AC50 cell viability [1]: 2.95 µM
- efficacy [2]: -102%
